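Test compounds were applied to cells in 96-well plates for 48 hours at 5 doses. Abbreviation: GI50, concentration required for 50% inhibition of growth.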 The source made the active and inactive calls. Rule as the data show it: active = GI50 up to about 1.1 µM and inactive = higher. Some results are limits rather than exact numbers.

Test systems include LOX IMVI; NCI-H23; SF-268; HCT-15; OVCAR-8; ACHN; U-251; SNB-19; MOLT-4; COLO 205; UACC-257; HCC 2998; HOP-92; SNB-75; A549; OVCAR-4; K562; UO-31; HL-60.
Test in all cases: NCI-60 cell line screen, 48 h

On to `Cc1c2c(c(C)n1-c1ccccc1)C(=O)N(CCN1CCN(c3cccc(C(F)(F)F)c3)CC1)C2=O`, for which the GI50 in the test with LOX IMVI is 37.1 µM (inactive); with NCI-H23, 7.94 µM (inactive); in the test on SF-268, > 100 µM (inactive); in the test on HCT-15, 17.7 µM; with OVCAR-8 it was 76.4 µM (inactive); in the test with ACHN it was > 100 µM (inactive). Further, the GI50 with U-251 was 31.3 µM (inactive); in the test with SNB-19, > 100 µM (inactive); with MOLT-4, 6.03 µM (inactive); with COLO 205 it was 17.1 µM (inactive); with UACC-257 it was 7.67 µM (inactive); in the test on HCC 2998 it was 97.5 µM (inactive). Besides, the GI50 in the test with HOP-92 was > 100 µM (inactive); with SNB-75 it was > 100 µM (inactive); in the test with A549, 46.6 µM (inactive); in the test on OVCAR-4 it was 7.35 µM (inactive); in the test on K562 it was 5.92 µM (inactive); in the test on UO-31, 48.6 µM (inactive).

In the case of `C=C(c1ccccc1)c1cc2c(=O)[nH]ccc2n1C`, the GI50 with LOX IMVI is 37.2 µM (inactive); in the test on NCI-H23 it was 30.1 µM (inactive); in the test with SF-268, 33.3 µM (inactive); in the test with HCT-15 it was 27.3 µM; in the test with OVCAR-8, 34 µM (inactive); in the test with ACHN, 35.7 µM (inactive). The GI50 in the test with SNB-19 was 48 µM (inactive); in the test on MOLT-4, 27.2 µM (inactive); in the test with COLO 205, 15.9 µM (inactive); in the test on UACC-257, 37.1 µM (inactive); in the test on HCC 2998 it was 35 µM (inactive); in the test on HOP-92 it was 14.2 µM (inactive). Besides, the GI50 in the test with SNB-75 is 11.9 µM (inactive); in the test with A549, 31.7 µM (inactive); with OVCAR-4 it was 35.5 µM (inactive); in the test with K562 it was 13.8 µM (inactive); in the test with UO-31, 18.5 µM (inactive); in the test on HL-60 it was 16.3 µM (inactive).

Turning to `COCCOCOc1ccc(OCc2ccccc2)cc1`, the GI50 in the test with LOX IMVI was > 100 µM (inactive); in the test with NCI-H23, > 71 µM (inactive); in the test with SF-268, > 100 µM (inactive); in the test on HCT-15, greater than 100 µM; in the test on OVCAR-8, > 100 µM (inactive); in the test on U-251, > 85.9 µM (inactive). The GI50 with SNB-19 is > 100 µM (inactive); in the test with MOLT-4 it was 34 µM (inactive); with COLO 205, > 100 µM (inactive); in the test with UACC-257, > 69.7 µM (inactive); in the test with HCC 2998, > 82.6 µM (inactive); in the test with HOP-92, > 100 µM (inactive). In addition, the GI50 in the test with A549 is > 100 µM (inactive); in the test on OVCAR-4 it was 35.7 µM (inactive); with K562, 64.9 µM (inactive); in the test with UO-31, > 100 µM (inactive); with HL-60, 22.5 µM (inactive).

Consider `O=C(NO)c1coc2ccccc2c1=O`, for which the GI50 in the test on LOX IMVI was > 100 µM (inactive); with NCI-H23, > 100 µM (inactive); in the test on SF-268 it was 91.2 µM (inactive); in the test with HCT-15, greater than 100 µM; in the test with OVCAR-8, > 100 µM (inactive); with ACHN, 23.7 µM (inactive). The GI50 with U-251 was > 100 µM (inactive); in the test with SNB-19, 84.9 µM (inactive); in the test on MOLT-4 it was > 100 µM (inactive); with COLO 205 it was 39.4 µM (inactive); in the test with UACC-257, > 100 µM (inactive); in the test with HCC 2998, 32.7 µM (inactive). Also, the GI50 in the test with SNB-75 is 41.9 µM (inactive); in the test on A549, > 100 µM (inactive); with OVCAR-4, > 100 µM (inactive); in the test with K562, > 100 µM (inactive); in the test with UO-31, 86.9 µM (inactive); in the test with HL-60, 75.2 µM (inactive).

As for `COc1cc2c(cc1Oc1ccc(OC)c3c1CC1c4c(cc(OC)c(OC)c4-3)CCN1C)CC1c3c(cc(OC)c(OC)c3-2)CCN1C` (configuration not stated), the GI50 with LOX IMVI was 0.234 µM (active); in the test with NCI-H23, 10.7 µM (inactive); with SF-268 it was 2.33 µM (inactive); in the test on HCT-15, 2.02 µM; with OVCAR-8, 5.3 µM (inactive); in the test on U-251, 1.79 µM (inactive). Besides, the GI50 in the test with SNB-19 was 5.69 µM (inactive); with MOLT-4, 1.25 µM (inactive); in the test with COLO 205, 1.48 µM (inactive); in the test on UACC-257, 1.65 µM (inactive); with HCC 2998, 2.41 µM (inactive); in the test with HOP-92, 2.34 µM (inactive). In addition, the GI50 in the test on SNB-75 was 2.26 µM (inactive); in the test with A549, 11.9 µM (inactive); in the test on OVCAR-4, 2.74 µM (inactive); in the test on K562, 1.39 µM (inactive); with UO-31 it was 3.88 µM (inactive); in the test with HL-60 it was 0.968 µM (active).

Take `CC(=O)ON1C(=O)c2cccc3cccc(c23)C1=O`: the GI50 was 14.2 µM (inactive) in the test with LOX IMVI; 10.4 µM (inactive) in the test on NCI-H23; 22.6 µM (inactive) with SF-268; 18 µM in the test with HCT-15; 27.1 µM (inactive) in the test with OVCAR-8; 28.4 µM (inactive) with ACHN. The GI50 was 14.8 µM (inactive) with U-251; 36.8 µM (inactive) in the test on SNB-19; 15.6 µM (inactive) in the test with MOLT-4; 26.8 µM (inactive) in the test with COLO 205; 23.8 µM (inactive) with UACC-257; 31.6 µM (inactive) in the test with HCC 2998. For the same compound, the GI50 was > 100 µM (inactive) in the test with HOP-92; 23.2 µM (inactive) in the test with A549; 11.7 µM (inactive) in the test on OVCAR-4; 20.1 µM (inactive) in the test on K562; 6.27 µM (inactive) with UO-31; 10.9 µM (inactive) in the test on HL-60.

With `CN(C)c1nc(N(C)C)nc(N(C)CN(C)c2ccccc2)n1`, the GI50 in the test with LOX IMVI is > 100 µM (inactive); in the test on NCI-H23, > 100 µM (inactive); with SF-268 it was > 100 µM (inactive); with HCT-15, greater than 100 µM; in the test with OVCAR-8, > 100 µM (inactive); with ACHN, > 100 µM (inactive). Further, the GI50 with U-251 was > 100 µM (inactive); in the test with SNB-19, > 100 µM (inactive); in the test with MOLT-4, > 100 µM (inactive); in the test on UACC-257, > 100 µM (inactive); in the test with HCC 2998 it was 64.4 µM (inactive); in the test with SNB-75, > 100 µM (inactive). Further, the GI50 with A549, in the test on OVCAR-4, in the test on K562, with UO-31 and with HL-60 was > 100 µM (inactive) in each case.

As to `Cc1ccccc1-c1nc2c(C(=O)NCCN(C)C)cccc2[nH]1`, the GI50 in the test on LOX IMVI is 38.3 µM (inactive); with NCI-H23 it was 57.7 µM (inactive); in the test with SF-268, 50.7 µM (inactive); with HCT-15, 43.8 µM; in the test with OVCAR-8, 42.8 µM (inactive); with U-251 it was 34.5 µM (inactive). Besides, the GI50 in the test on SNB-19 was 48.6 µM (inactive); in the test with MOLT-4, 27 µM (inactive); in the test with COLO 205 it was 18.5 µM (inactive); in the test on UACC-257, 39.8 µM (inactive); with HCC 2998, 40.3 µM (inactive); in the test on HOP-92, 20.6 µM (inactive). Besides, the GI50 with SNB-75 was 39.3 µM (inactive); with A549 it was 39.4 µM (inactive); with OVCAR-4 it was 49.1 µM (inactive); with K562, 20.9 µM (inactive); in the test with UO-31, 20 µM (inactive); in the test on HL-60, 26.5 µM (inactive).
